# Measurements as given in patent US10174037B2, “Dihydropyrazolopyrimidinone compounds as PDE2 inhibitors” (Merck Sharp & Dohme Corp., priority 2015, dated 2019).
# Assays:
# human PDE2A1 = human PDE2A1 (Homo sapiens (Human), UniProt O00408); test: PDE selectivity IMAP FP assay, human PDE2A1; type: biochemical; conditions: Human PDE2; Lab B; read-out: Human PDE2 Ki (nM) Lab B
# Outline: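 Compound titrations run against PDE2 in Tris HCl pH 7.2 buffer with MgCl2 and DTT for 60 min at room temperature, using 50 nM FAM-cAMP plus 1000 nM cGMP and enzyme giving 20% conversion.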
# Rhesus PDE2A3 = Rhesus PDE2A3 (Macaca mulatta, UniProt B3VTJ2); test: PDE2 fluorescence polarization (IMAP FP) assay, rhesus PDE2A3; type: biochemical, rhesus macaque; conditions: Lab B, read-out: Rhesus PDE2 Ki (nM) Lab B
# Sequence of Rhesus PDE2A3 (B3VTJ2 1-941): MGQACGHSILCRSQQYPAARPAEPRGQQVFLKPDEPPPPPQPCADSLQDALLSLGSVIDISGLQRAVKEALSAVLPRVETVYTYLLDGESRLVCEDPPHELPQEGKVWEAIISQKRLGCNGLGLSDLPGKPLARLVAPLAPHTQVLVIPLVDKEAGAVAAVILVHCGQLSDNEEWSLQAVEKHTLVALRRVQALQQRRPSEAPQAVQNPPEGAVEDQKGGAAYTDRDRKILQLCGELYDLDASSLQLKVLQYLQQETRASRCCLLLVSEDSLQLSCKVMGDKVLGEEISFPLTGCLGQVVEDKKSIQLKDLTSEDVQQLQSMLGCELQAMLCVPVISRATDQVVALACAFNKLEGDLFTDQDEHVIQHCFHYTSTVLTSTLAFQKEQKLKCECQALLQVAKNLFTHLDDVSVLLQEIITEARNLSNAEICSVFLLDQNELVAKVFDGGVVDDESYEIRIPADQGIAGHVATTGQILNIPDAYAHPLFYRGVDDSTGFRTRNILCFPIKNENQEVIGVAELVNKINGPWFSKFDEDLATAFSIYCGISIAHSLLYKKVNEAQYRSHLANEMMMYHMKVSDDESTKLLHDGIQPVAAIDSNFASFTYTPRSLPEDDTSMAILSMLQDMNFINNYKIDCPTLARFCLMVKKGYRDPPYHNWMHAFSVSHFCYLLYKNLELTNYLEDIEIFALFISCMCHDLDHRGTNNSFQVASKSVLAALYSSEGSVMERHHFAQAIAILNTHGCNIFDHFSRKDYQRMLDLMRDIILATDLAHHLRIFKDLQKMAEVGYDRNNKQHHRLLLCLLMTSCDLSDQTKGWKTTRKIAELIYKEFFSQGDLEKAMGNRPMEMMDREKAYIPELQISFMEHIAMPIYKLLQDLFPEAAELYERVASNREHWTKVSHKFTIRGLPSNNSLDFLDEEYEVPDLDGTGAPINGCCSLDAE
# Sequence of human PDE2A1 (O00408 other isoform, or with tags, fused parts or gaps): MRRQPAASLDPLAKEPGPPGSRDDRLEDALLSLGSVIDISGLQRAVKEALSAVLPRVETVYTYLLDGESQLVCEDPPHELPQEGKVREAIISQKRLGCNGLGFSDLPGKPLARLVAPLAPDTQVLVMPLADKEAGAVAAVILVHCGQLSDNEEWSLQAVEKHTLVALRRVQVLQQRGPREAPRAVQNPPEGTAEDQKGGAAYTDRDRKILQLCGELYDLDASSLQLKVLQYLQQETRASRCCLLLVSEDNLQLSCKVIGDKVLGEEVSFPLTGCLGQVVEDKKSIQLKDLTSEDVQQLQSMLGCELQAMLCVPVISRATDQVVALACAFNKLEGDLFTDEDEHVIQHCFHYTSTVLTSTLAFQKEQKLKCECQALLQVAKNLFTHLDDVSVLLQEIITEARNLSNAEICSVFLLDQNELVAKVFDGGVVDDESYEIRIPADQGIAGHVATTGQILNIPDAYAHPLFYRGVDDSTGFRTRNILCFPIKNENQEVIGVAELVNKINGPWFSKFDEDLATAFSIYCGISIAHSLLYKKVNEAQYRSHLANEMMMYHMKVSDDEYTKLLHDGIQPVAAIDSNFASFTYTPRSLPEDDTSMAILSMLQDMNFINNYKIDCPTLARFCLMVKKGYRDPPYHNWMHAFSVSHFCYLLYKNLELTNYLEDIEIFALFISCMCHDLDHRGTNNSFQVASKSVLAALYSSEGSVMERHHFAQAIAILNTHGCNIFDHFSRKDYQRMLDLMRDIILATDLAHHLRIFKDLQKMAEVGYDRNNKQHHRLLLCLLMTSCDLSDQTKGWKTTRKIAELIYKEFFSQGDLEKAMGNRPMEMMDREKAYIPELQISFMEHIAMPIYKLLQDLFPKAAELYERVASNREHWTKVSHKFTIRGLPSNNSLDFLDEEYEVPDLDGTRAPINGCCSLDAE
Structure (SMILES),Ki (human PDE2A1) [nM],Ki (Rhesus PDE2A3) [nM]
"CN(C)c1nc2c(c(CF)nn2C(c2ccc(C(F)(F)F)cc2)C2CC2)c(=O)[nH]1 (single isomer, unassigned) [Example 179, (S)- or (R)-1-(Cyclopropyl(4-(trifluoromethyl)phenyl)methyl)-6-(dimethylamino)-3-(fluoromethyl)-1H-pyrazolo[3,4-d]pyrimidin-4(5H)-one]",0.072,0.072
"CN(C)c1nc2c(c(CF)nn2C(c2ccc(C(F)(F)F)c(F)c2)C2CC2)c(=O)[nH]1 (single isomer, unassigned) [Example 181, (S)- or (R)-1-(Cyclopropyl(3-fluoro-4-(trifluoromethyl)phenyl)methyl)-6-(dimethylamino)-3-(fluoromethyl)-1H-pyrazolo[3,4-d]pyrimidin-4(5H)-one]",0.058,0.11
"CC(C)c1ccc(C(C2CC2)n2nc(CF)c3c(=O)[nH]c(N(C)C)nc32)cc1 (single isomer, unassigned) [Example 183, (R)- or (S)-1-(Cyclopropyl(4-isopropylphenyl)methyl)-6-(dimethylamino)-3-(fluoromethyl)-1H-pyrazolo[3,4-d]pyrimidin-4(5H)-one]",0.064,0.082
"CC(c1ccc(C(F)(F)F)cc1F)n1nc(CF)c2c(=O)[nH]c(N(C)C)nc21 (single isomer, unassigned) [Example 186, (R)- or (S)-6-(Dimethylamino)-1-(1-(2-fluoro-4-(trifluoromethyl)phenyl)ethyl)-3-(fluoromethyl)-1H-pyrazolo[3,4-d]pyrimidin-4(5H)-one]",0.13,0.14
"CN(C)c1nc2c(c(CF)nn2C(c2ccc(OC(F)F)c(F)c2)C2CC2)c(=O)[nH]1 (single isomer, unassigned) [Example 188, (R)- or (S)-1-(Cyclopropyl(4-(difluoromethoxy)-3-fluorophenyl)methyl)-6-(dimethylamino)-3-(fluoromethyl)-1H-pyrazolo[3,4-d]pyrimidin-4(5H)-one]",0.35,0.41
"CN(C)c1nc2c(c(CF)nn2C(c2ccc(OC(F)F)c(F)c2)C2CC2)c(=O)[nH]1 (single isomer, unassigned) [Example 189, (S)- or (R)-1-(Cyclopropyl(4-(difluoromethoxy)-3-fluorophenyl)methyl)-6-(dimethylamino)-3-(fluoromethyl)-1H-pyrazolo[3,4-d]pyrimidin-4(5H)-one]",0.35,0.62
"CN(C)c1nc2c(c(CF)nn2C(c2ccc(CC(F)(F)F)cc2)C2CC2)c(=O)[nH]1 (single isomer, unassigned) [Example 192, (R)- or (S)-1-(Cyclopropyl(4-(2,2,2-trifluoroethyl)phenyl)methyl)-6-(dimethylamino)-3-(fluoromethyl)-1H-pyrazolo[3,4-d]pyrimidin-4(5H)-one]",0.41,0.42
"CN(C)c1nc2c(c(CF)nn2C(c2ccc(CC(F)(F)F)cc2)C2CC2)c(=O)[nH]1 (single isomer, unassigned) [Example 193, (S)- or (R)-1-(Cyclopropyl(4-(2,2.2-trifluoroethyl)phenyl)methyl)-6-(dimethylamino)-3-(fluoromethyl)-1H-pyrazolo[3,4-d]pyrimidin-4(5H)-one]",0.39,0.41
"CC(c1ccc(C(C)(F)F)cc1)n1nc(CF)c2c(=O)[nH]c(N(C)C)nc21 (single isomer, unassigned) [Example 195, (S)- or (R)-1-(1-(4-(1,1-Difluoroethyl)phenyl)ethyl)-6-(dimethylamino)-3-(fluoromethyl)-1H-pyrazolo[3,4-d]pyrimidin-4(5H)-one]",0.17,0.14

# The remaining lines, values ahead:
Ki (human PDE2A1) [nM],Ki (Rhesus PDE2A3) [nM],Structure (SMILES)
0.099,0.2,"CC(c1ccc(C(F)(F)F)c(F)c1)n1nc(CF)c2c(=O)[nH]c(N(C)C)nc21 (single isomer, unassigned) [Example 169, (S)- or (R)-6-(Dimethylamino)-1-(1-(3-fluoro-4-(trifluoromethyl)phenyl)ethyl)-3-(fluoromethyl)-1H-pyrazolo[3,4-d]pyrimidin-4(5H)-one]"
7.6,11,"CC(c1ccc(C(C)(C)C)cc1)n1nc(CF)c2c(=O)[nH]c(N(C)C)nc21 (single isomer, unassigned) [Example 170, (R)- or (S)-1-(1-(4-tert-Butylphenyl(ethyl)-6-(dimethylamino)-3-(fluoromethyl)-1H-pyrazolo[3,4-d]pyrimidin-4(5H)-one]"
0.2,0.24,"CC(c1ccc(C(C)(C)C)cc1)n1nc(CF)c2c(=O)[nH]c(N(C)C)nc21 (single isomer, unassigned) [Example 171, (S)- or (R)-1-(1-(4-tert-Butylphenyl)ethyl)-6-(dimethylamino)-3-(fluoromethyl)-1H-pyrazolo[3,4-d]pyrimidin-4(5H)-one]"
0.063,0.096,"CCC(c1ccc(C(F)(F)F)cc1)n1nc(CF)c2c(=O)[nH]c(N(C)C)nc21 (single isomer, unassigned) [Example 173, (S)- or (R)-6-(Dimethylamino)-3-(fluoromethyl)-1-(1-(4-(trifluoromethyl)phenyl)propyl)-1H-pyrazolo[3,4-d]pyrimidin-4(5H)-one]"
0.23,0.28,"CC(C)c1ccc(C(C(C)C)n2nc(CF)c3c(=O)[nH]c(N(C)C)nc32)cc1 (single isomer, unassigned) [Example 176, (R)- or (S)-6-(Dimethylamino)-3-(fluoromethyl)-1-(1-(4-isopropylphenyl)-2-methylpropyl)-1H-pyrazolo[3,4-d]pyrimidin-4(5H)-one]"
0.047,0.058,"CC(C)c1ccc(C(C(C)C)n2nc(CF)c3c(=O)[nH]c(N(C)C)nc32)cc1 (single isomer, unassigned) [Example 177, (S)- or (R)-6-(Dimethylamino)-3-(fluoromethyl)-1-(1-(4-isopropylphenyl)-2-methylpropyl)-1H-pyrazolo[3,4-d]pyrimidin-4(5H)-one]"
0.19,0.24,"CC(C)C(c1ccc(OC(F)F)cc1)n1nc(CF)c2c(=O)[nH]c(N(C)C)nc21 (single isomer, unassigned) [Example 184, (R)- or (S)-1-(1-(4-(Difluoromethoxy)phenyl)-2-methylpropyl)-6-(dimethylamino)-3-(fluoromethyl)-1H-pyrazolo[3,4-d]pyrimidin-4(5H)-one]"
0.12,0.16,"CC(C)C(c1ccc(OC(F)F)cc1)n1nc(CF)c2c(=O)[nH]c(N(C)C)nc21 (single isomer, unassigned) [Example 185, (S)- or (R)-1-(1-(4-(Difluoromethoxy)phenyl)-2-methylpropyl)-6-(dimethylamino)-3-(fluoromethyl)-1H-pyrazolo[3,4-d]pyrimidin-4(5H)-one]"
0.38,0.42,"CC(c1ccc(C(F)F)cc1)n1nc(CF)c2c(=O)[nH]c(N(C)C)nc21 (single isomer, unassigned) [Example 191, (S)- or (R)-1-(1-(4-(Difluoromethyl)phenyl)ethyl)-6-(dimethylamino)-3-(fluoromethyl)-1H-pyrazolo[3,4-d]pyrimidin-4(5H)-one]"
